According to patent US20230066156A1, “6-SUBSTITUTED, 22-CYANO HYODEOXYCHOLANIC ANALOGUES AND USES THEREOF” (PRECISION BIO-THERAPEUTICS S.R.L., priority 2019, published 2023):

Key:
FXR = biological target: T1, FXR (Homo sapiens, UniProt Q96RI1); test: FXR mediated transactivation, IR1 (hsp27)-luciferase reporter in transfected HepG2 cells; format: cell-based; conditions: compound at 10 μM, HepG2, vs maximal transactivation by CDCA 10 μM, triplicate
T1 construct: expressed in transfected cells; host or cells: HepG2
T1 sequence (Q96RI1 1-486): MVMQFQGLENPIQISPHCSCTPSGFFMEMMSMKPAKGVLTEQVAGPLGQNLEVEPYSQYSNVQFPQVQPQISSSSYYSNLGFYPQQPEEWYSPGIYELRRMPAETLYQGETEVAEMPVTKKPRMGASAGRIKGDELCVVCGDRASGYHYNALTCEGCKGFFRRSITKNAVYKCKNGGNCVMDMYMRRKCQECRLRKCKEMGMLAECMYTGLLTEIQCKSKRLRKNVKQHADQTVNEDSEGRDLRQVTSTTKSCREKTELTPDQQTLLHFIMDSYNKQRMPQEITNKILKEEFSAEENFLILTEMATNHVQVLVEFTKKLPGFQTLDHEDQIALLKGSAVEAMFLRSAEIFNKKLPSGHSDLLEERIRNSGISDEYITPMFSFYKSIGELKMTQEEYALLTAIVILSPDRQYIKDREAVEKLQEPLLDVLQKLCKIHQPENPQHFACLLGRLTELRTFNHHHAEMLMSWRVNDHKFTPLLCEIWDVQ
T1 sequence (P19793 1-462 partner): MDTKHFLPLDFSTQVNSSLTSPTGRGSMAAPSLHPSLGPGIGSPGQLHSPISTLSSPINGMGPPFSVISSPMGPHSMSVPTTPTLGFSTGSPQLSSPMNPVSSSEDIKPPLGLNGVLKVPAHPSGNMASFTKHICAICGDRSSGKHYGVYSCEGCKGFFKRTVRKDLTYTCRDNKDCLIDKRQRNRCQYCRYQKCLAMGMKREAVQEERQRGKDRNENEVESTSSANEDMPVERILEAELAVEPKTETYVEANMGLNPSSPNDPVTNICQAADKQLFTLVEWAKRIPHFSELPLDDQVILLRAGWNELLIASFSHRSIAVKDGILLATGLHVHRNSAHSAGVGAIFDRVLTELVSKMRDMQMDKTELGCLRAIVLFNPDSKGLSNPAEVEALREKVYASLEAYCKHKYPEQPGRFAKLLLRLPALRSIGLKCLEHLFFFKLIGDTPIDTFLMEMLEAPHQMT
Experimental: (§1) Selected compounds were tested in vitro on FXR and TGR5/GPBAR1 receptors (Table 1) using a whole cell model transfected with a reporter genes. The activity was evaluated in comparison with chenodeoxycholic acid (CDCA) and TLCA.
(§2) CDCA is a primary bile acid that functions as an endogenous ligand for FXR, while TLCA is a physiological ligand for TGR5/GPBAR1. In this assay, HepG2 cells (a liver-derived cell line) were cultured at 37° C. in minimum essential medium with Earl's salts containing 10% fetal bovine serum (FBS), 1% L-glutamine, and 1% penicillin/streptomycin. HEK-293T cells were cultured at 37° C. in D-MEM containing 10% fetal bovine serum (FBS), 1% L-glutamine, and 1% penicillin/streptomycin. The transfection experiments were performed using Fugene HD according to manufactured specifications. Cells were plated in a 24-well plate at 5×10^4 cells/well. For FXR mediated transactivation, HepG2 cells were transfected with 100 ng of pSG5-FXR, 100 ng of pSG5-RXR, 100 ng of pGL4.70 a vector encoding the human Renilla gene and 250 ng of the reporter vector p(hsp27)-TK-LUC containing the FXR response element IR1 cloned from the promoter of heat shock protein 27 (hsp27).
(§3) The data on the activity of certain compounds of the invention on TGR5/GPBAR1 are described in the following table 1. In this table, activities for compounds of the invention on GPBAR1 was compared to those of the reference compound TLCA. For % of activity, each compound was tested at the concentration of 10 microM and transactivation activity of TLCA on CRE (i.e. TGR5/GPBAR1) was considered equal to 100%. For selectivity toward FXR, activity was assessed in HepG2 cells transfected with an FXR responsive element (IR1) cloned upstream to the luciferase gene. For calculation of efficacy data, maximal transactivation of IR1 caused by each compound (10 μM) was compared to maximal transactivation caused by CDCA (10 μM). GPBAR1/FXR selectivity calculated as ratio between % of activity toward GPBAR1 and % of activity toward FXR. Each experiment was conducted in triplicate.

human GPBAR1 = biological target: T2, human GPBAR1 (Homo sapiens, UniProt Q8TDU6); test: GPBAR1 mediated transactivation, CRE-luciferase reporter in transfected HEK-293T cells; format: cell-based; conditions: for EC50: HEK-293T CRE-luciferase transactivation; for GPBAR1 (% of activity in comparison to 10 μM TLCA): compound at 10 microM, HEK-293T, TLCA = 100%, triplicate; for GPBAR1/FXR selectivity: ratio between % of activity toward GPBAR1 and % of activity toward FXR
T2 construct: expressed in transfected cells; host or cells: HEK-293T
T2 sequence (Q8TDU6 1-330): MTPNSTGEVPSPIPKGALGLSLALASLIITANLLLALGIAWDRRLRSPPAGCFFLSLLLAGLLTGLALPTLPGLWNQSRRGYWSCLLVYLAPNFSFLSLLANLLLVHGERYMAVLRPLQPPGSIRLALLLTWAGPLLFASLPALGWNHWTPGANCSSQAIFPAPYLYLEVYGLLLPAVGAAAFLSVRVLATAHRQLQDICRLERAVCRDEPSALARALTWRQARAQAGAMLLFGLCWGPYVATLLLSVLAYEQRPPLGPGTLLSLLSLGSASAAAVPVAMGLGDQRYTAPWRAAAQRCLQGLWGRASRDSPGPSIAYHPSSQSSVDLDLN
Experimental: as §1, §2
For GPBAR1 mediated transactivation, HEK-293T cells were transfected with 200 ng of pGL4.29, a reporter vector containing a cAMP response element (CRE) that drives the transcription of the luciferase reporter gene luc2P, with 100 ng of pCMVSPORT6-human GPBAR1, and with 100 ng of pGL4.70 a vector encoding the human Renilla gene. In control experiments HEK-293T cells were transfected only with vectors pGL4.29 and pGL4.70 to exclude any possibility that compounds could activate the CRE in a GPBAR1 independent manner. At 24 h post-transfection, cells were stimulated for 18 h with 10 μM TLCA as a control agent or putative GPBAR1 agonists as the same concentration. After treatments, cells were lysed in 100 μL of lysis buffer (25 mM Tris-phosphate, pH 7.8; 2 mM DTT; 10% glycerol; 1% Triton X-100), and 20 μL of cellular lysate was assayed for luciferase activity using the luciferase assay system. Luminescence was measured using Glomax 20/20 luminometer. Luciferase activities were normalized against Renilla activities. Antagonism against FXR of GPBAR1/TGR5 was measured as percent of activity in transactivation assay suing activity of TLCA as example of agonism.
as §3

Structure (SMILES)	FXR (% of activity in comparison to 10 μM CDCA) (FXR)	EC50 (human GPBAR1)	GPBAR1 (% of activity in comparison to 10 μM TLCA) (human GPBAR1)	GPBAR1/FXR selectivity (human GPBAR1)
C[C@H](CC#N)[C@H]1CC[C@H]2[C@@H]3C[C@@](O)(c4ccccc4)[C@@H]4C[C@H](O)CC[C@]4(C)[C@H]3CC[C@]12C [PBT115, 3α, 6α-dihydroxy-6β-phenyl-24-nor-5β-cholane-23-nitrile]	18.2 ± 1.08%	4580 nM	38.8 ± 1.79%	2.13
C[C@H](CC#N)[C@H]1CC[C@H]2[C@@H]3C[C@](C)(O)[C@@H]4C[C@H](O)CC[C@]4(C)[C@H]3CC[C@]12C [PBT109B, 3α,6α-dihydroxy-6β-methyl-24-nor-5β-cholan-23-nitrile]	6.4 ± 0.23%	6900 nM	95.4 ± 0.24%	14.9
C[C@H](CC#N)[C@H]1CC[C@H]2[C@@H]3C[C@@](C)(O)[C@@H]4C[C@H](O)CC[C@]4(C)[C@H]3CC[C@]12C [PBT109A, 3α, 6β-dihydroxy-6α-methyl-24-nor-5β-cholan-23-nitrile]	5.5 ± 0.7%	570 nM	83.4 ± 2.4%	15.1
C=CCCC[C@]1(O)C[C@H]2[C@@H]3CC[C@H]([C@H](C)CC#N)[C@@]3(C)CC[C@@H]2[C@@]2(C)CC[C@@H](O)C[C@@H]12 [PBT114, 3α, 6α-dihydroxy-6β-(4-Pentenyl)-24-Nor-5β-Cholane-23-Nitrile]	1.6 ± 0.05%	780 nM	90.1 ± 1.35%	56.31
CC[C@@]1(O)C[C@H]2[C@@H]3CC[C@H]([C@H](C)CC#N)[C@@]3(C)CC[C@@H]2[C@@]2(C)CC[C@@H](O)C[C@@H]12 [PBT110A, 3α,6β-dihydroxy-6α-ethyl-24-nor-5β-cholan-23-nitrile]	6.6 ± 0.065%	660 nM	65.9 ± 1.69%	9.9
CCC[C@]1(O)C[C@H]2[C@@H]3CC[C@H]([C@H](C)CC#N)[C@@]3(C)CC[C@@H]2[C@@]2(C)CC[C@@H](O)C[C@@H]12 [PBT111, 3α,6α-dihydroxy-6β-propyl-24-nor-5β-cholan-23-nitrile]	3.1 ± 0.29%	1200 nM	67.1 ± 2.1%	21.6
C[C@H](CC#N)[C@H]1CC[C@H]2[C@@H]3C[C@](O)(Cc4ccccc4)[C@@H]4C[C@H](O)CC[C@]4(C)[C@H]3CC[C@]12C [PBT117, 3α,6β-dihydroxy-6α-benzyl-24-nor-5β-cholane-23-nitrile]	4.4 ± 0.49%	9330 nM	8.3 ± 0.015%	1.88
C=C[C@]1(O)C[C@@H]2[C@H](CC[C@]3(C)[C@@H]([C@H](C)CC#N)CC[C@@H]23)[C@@]2(C)CC[C@@H](O)C[C@H]21 [PBT113, 3α, 6α-dihydroxy-6β-vinyl-24-nor-5β-cholane-23-nitrile]	2.2 ± 0.5%	2260 nM	62.5 ± 2.18%	28.4
CC(C)[C@]1(O)C[C@@H]2[C@H](CC[C@]3(C)[C@@H]([C@H](C)CC#N)CC[C@@H]23)[C@@]2(C)CC[C@@H](O)C[C@H]21 [PBT112, 3α, 6α-dihydroxy-6β-isopropyl-24-nor-5β-cholane-23-nitrile]	4.3 ± 0.31%	2780 nM	22.2 ± 0.13%	5.16
